According to ChEMBL document CHEMBL2429712, “Synthesis and cytotoxicity of (3)-3-acetyloxy-5(6)-androsten-7-one oxime and 3,5(6)-androstadien-7-one oxime” (Med Chem Res, 2013):

Key:
Type in all cases: functional, cell-based
MCF7 = assay: Cytotoxicity against human MCF7 cells after 44 hrs by SRB assay; details: MCF7, 44 h
MKN-28 = assay: Cytotoxicity against human MKN28 cells after 44 hrs by SRB assay; details: MKN-28, 44 h
HeLa = assay: Cytotoxicity against human HeLa cells after 44 hrs by SRB assay
KB = assay: Cytotoxicity against human KB cells after 44 hrs by SRB assay

SMILES	IC50 (MCF7)	IC50 (MKN-28)	IC50 (HeLa)	IC50 (KB)
CC(=O)O[C@H]1CC[C@@]2(C)C(=CC(=O)[C@H]3[C@@H]4CCC[C@@]4(C)CC[C@@H]32)C1	39.5 µM	48.5 µM	34 µM	62 µM
COc1cccc2c1C(=O)c1c(O)c3c(c(O)c1C2=O)C[C@@](O)(C(=O)CO)C[C@@H]3O[C@H]1C[C@H](N)[C@H](O)[C@H](C)O1 [DOXORUBICIN]	–	0.22 µM	–	0.028 µM
C[C@@]12CCC[C@H]1[C@@H]1/C(=N\O)C=C3C=CCC[C@]3(C)[C@H]1CC2	19.8 µM	36.1 µM	22.2 µM	28.5 µM
CC(=O)O[C@H]1CC[C@@]2(C)C(=C/C(=N\O)[C@H]3[C@@H]4CCC[C@@]4(C)CC[C@@H]32)C1	10.2 µM	18.1 µM	12.8 µM	26 µM
C[C@@]12CCC[C@H]1[C@@H]1C(=O)C=C3C=CCC[C@]3(C)[C@H]1CC2	52.2 µM	64.3 µM	62.4 µM	> 80 µM
